Tests used:
Assay type in all cases: cell-based
[1] = molecular target: T1, LNCaP androgen receptor (endogenous mutant AR) (Homo sapiens, UniProt P10275, T878A); assay: Androgen receptor transactivation assay in LNCaP cells (MMTV-luciferase reporter); details: DHT 1 nM, JC9 0 uM to 7.5 uM
T1 construct: LNCaP cells express an endogenous mutant AR that is found in prostate cancer patients; host or cells: LNCaP
T1 sequence (P10275 1-920 T878A): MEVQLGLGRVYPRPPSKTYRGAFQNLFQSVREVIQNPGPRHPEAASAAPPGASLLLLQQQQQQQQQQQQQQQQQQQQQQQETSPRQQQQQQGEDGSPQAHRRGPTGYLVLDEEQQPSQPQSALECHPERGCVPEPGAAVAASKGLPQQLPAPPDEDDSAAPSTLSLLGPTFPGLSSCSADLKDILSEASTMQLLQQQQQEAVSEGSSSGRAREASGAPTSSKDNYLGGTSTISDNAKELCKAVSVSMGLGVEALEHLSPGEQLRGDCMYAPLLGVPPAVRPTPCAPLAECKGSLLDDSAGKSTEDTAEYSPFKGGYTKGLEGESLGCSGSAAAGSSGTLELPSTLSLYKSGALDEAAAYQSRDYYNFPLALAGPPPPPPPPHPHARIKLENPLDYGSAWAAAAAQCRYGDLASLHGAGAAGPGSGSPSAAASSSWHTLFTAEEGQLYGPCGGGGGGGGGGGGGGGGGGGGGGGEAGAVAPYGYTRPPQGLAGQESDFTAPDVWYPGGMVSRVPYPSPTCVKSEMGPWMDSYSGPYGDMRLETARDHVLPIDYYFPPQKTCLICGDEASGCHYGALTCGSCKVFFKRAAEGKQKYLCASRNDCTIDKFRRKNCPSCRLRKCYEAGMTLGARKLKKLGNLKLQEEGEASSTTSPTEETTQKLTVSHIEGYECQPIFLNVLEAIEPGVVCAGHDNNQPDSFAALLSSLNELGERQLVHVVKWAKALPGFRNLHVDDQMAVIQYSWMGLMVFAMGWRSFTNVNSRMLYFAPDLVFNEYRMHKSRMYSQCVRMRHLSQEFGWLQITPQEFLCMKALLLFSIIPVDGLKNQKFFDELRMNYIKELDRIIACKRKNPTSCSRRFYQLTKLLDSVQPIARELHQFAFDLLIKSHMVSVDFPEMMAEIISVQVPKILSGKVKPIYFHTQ
Excerpt: Prostate cancer cells, non-prostate tumor cells, and normal cells can be used in this transient transfection assay, which measures transactivation of the androgen receptor (AR) and can be used to detect a reduction of AR activity caused by AR degradation. In the provided non-limiting example, CV-1 (green monkey kidney cells lacking an androgen receptor) and LNCaP cells (prostate cancer cells containing an endogenous mutant AR), were transfected with a plasmid carrying an androgen response element (ARE) and a reporter gene.
Both the CV-1 and LNCaP cells (obtained from ATCC, Manassas, Va.) were maintained in […] medium supplemented with penicillin (25 units/millilter), streptomycin (25 micrograms/milliliter), and 10% heat-inactivated fetal bovine serum (FBS). Cells were plated in 35-millimeter dishes at a concentration of 1-2×10^5cells/well and cultured at 37 degrees Celsius in an incubator under a 5% carbon dioxide atmosphere. […] The cells were lysed, and luciferase activity of the lysate was measured with the Dual-Luciferase Reporter Assay System (Promega, Madison, Wis.). Data were expressed as relative luciferase activity normalized to the internal luciferase positive control. […]

AR = molecular target: T2, AR (Homo sapiens, UniProt P10275, T878A); details: LNCaP, JC9 5 micromolar about 20 hours, then cycloheximide 15 micrograms/milliliter
T2 construct: LNCaP cells express an endogenous mutant AR that is found in prostate cancer patients; host or cells: LNCaP
T2 sequence (P10275 1-920 T878A): T1 sequence (P10275 1-920 T878A)
Experimental: To determine whether the observed reduction of AR protein levels was due to protein degradation rather than inhibition of AR protein synthesis, a second set of three replicate experiments was performed. […] In the absence of new AR protein synthesis, any alterations in AR levels would be mainly attributable to protein degradation. LNCaP cells were cultured, and incubated with JC9 (5 micromolar) for about 20 hours.

androgen receptor (AR) = molecular target: T3, androgen receptor (AR) (Homo sapiens, UniProt P10275, T878A); assay: Western blot of LNCaP cell lysates, AR; details: 1 or 2 micromolar, 24 hours, presence or absence of DHT
T3 construct: LNCaP cells express an endogenous mutant AR that is found in prostate cancer patients; host or cells: LNCaP
T3 sequence (P10275 1-920 T878A): T1 sequence (P10275 1-920 T878A)
Experimental: Human prostate cancer LNCaP cells and T47D cells were plated at a density of 7×10^5 cells per 60 millimeter tissue culture dish in […] (RPMI) medium containing 10% FBS. The medium was changed to RPMI or DME medium containing 10% charcoal-stripped serum 24 hours later to deplete cellular androgens or estrogens. After another 24 hours, treatment with the test compounds began. The test dose of JC15 was 1 or 2 micromolar and the test does of JC9 was 1, 5 and 10 micromolar. LNCap cells also received dihydrotestosterone (DHT) (3 nanomolar). Control cells received a corresponding amount of the vehicle, dimethylsulfoxide (DMSO) (<0.04%) for an equivalent exposure time. Cells were incubated with JC15 for 24 or 48 hours, and were lysed in 250 microliters of 1×SDS/PAGE loading buffer. Approximately 40 micrograms of total cellular protein was loaded in each lane of a pre-cast gel (NuPAGE, Invitrogen). Protein separation and transfer were performed following the manufacturer's instructions.
For the prostate cell lysates, androgen receptor (AR) protein was visualized by incubating the resultant membranes with an anti-AR antibody (BD-PharMingen), followed by chemiluminescence detection (ECL Plus, Amersham). […] The resultant protein signals were quantified using densitometry and NIH ImageJ software.

For `COc1ccc(C=CC(=O)C=C(O)C=Cc2ccc(OC)c(OC)c2)cc1OC` [JC9, 5-hydroxy-1,7-bis(3,4-dimethoxyphenyl)-1,4,6-heptatrien-3-one], the “LNCaP androgen receptor transactivation (relative luciferase activity)” value [1] was “dose-dependent inhibition of LNCaP androgen receptor transactivation” and the “time within which degradation of existing AR protein was enhanced” value (AR) was no more than 4 h.

With `CCOC(=O)CCC(C(=O)C=Cc1ccc(O)c(OC)c1)C(=O)C=Cc1ccc(O)c(OC)c1` (stereo not drawn) [JC15, 7-(4-hydroxy-3-methoxyphenyl)-4-[3-(4-hydroxy-3-methoxyphenyl)acryloyl]-5-oxo-hept-6-enoic acid ethyl ester] the “cellular concentration of AR” value (androgen receptor (AR)) was “decreased”.

Source: patent publication US20060084704A1, “Methods and compositions for enhancing degradation of nuclear receptor transcription factors and uses thereof” (priority 2004, published 2006)
